In PubChem BioAssay AID256 (DTP/NCI, 2004):
“And” between values parts separate entries of the source, which are not always exact repeats. Equal entries are not always repeated. Toxic doses and inconclusive results are not listed. Rule for the calls: active = survival T/C of 150% or more; inactive = T/C below 125% in these data.

System: CD2F1 mice, L1210 leukemia ip, survival T/C
Assay: NCI In Vivo Anticancer Drug Screen. Data for tumor model L1210 Leukemia (intraperitoneal) in CD2F1 (CDF1) mice
Conditions: endpoint: mean survival time, higher = longer survival
In short: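 Vehicle-treated tumor-bearing mice served as controls (C) for compound-treated mice (T). Reported figure is T divided by C.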

[1] = dose: 100.0 mg/kg/injection, schedule: Q01DX009 (ip), vehicle: saline with Tween-80
[2] = dose: 100.0 mg/kg/injection, schedule: Q04DX003 (ip), vehicle: saline with Tween-80
[3] = dose: 200.0 mg/kg/injection, schedule: Q01DX009 (ip), vehicle: saline with Tween-80
[4] = dose: 200.0 mg/kg/injection, schedule: Q04DX003 (ip), vehicle: saline with Tween-80
[5] = dose: 400.0 mg/kg/injection, schedule: Q01DX009 (ip), vehicle: saline with Tween-80
[6] = dose: 400.0 mg/kg/injection, schedule: Q04DX003 (ip), vehicle: saline with Tween-80
[7] = dose: 50.0 mg/kg/injection, schedule: Q04DX002 (ip), vehicle: saline
[8] = dose: 100.0 mg/kg/injection, schedule: Q04DX002 (ip), vehicle: saline
[9] = dose: 200.0 mg/kg/injection, schedule: Q04DX002 (ip), vehicle: saline
[10] = dose: 100.0 mg/kg/injection, schedule: Q01DX001 (ip), vehicle: saline with Tween-80
[11] = dose: 200.0 mg/kg/injection, schedule: Q01DX001 (ip), vehicle: saline with Tween-80
[12] = dose: 400.0 mg/kg/injection, schedule: Q01DX001 (ip), vehicle: saline with Tween-80
[13] = dose: 50.0 mg/kg/injection, schedule: Q01DX009 (ip), vehicle: saline with Tween-80
[14] = dose: 10.0 mg/kg/injection, schedule: Q01DX001 (ip), vehicle: saline
[15] = dose: 20.0 mg/kg/injection, schedule: Q01DX001 (ip), vehicle: saline
[16] = dose: 40.0 mg/kg/injection, schedule: Q01DX001 (ip), vehicle: saline
[17] = dose: 80.0 mg/kg/injection, schedule: Q01DX001 (ip), vehicle: saline
[18] = dose: 100.0 mg/kg/injection, schedule: Q04DX002 (ip), vehicle: saline with Tween-80
[19] = dose: 100.0 mg/kg/injection, schedule: Q01DX001 (ip), vehicle: saline
[20] = dose: 200.0 mg/kg/injection, schedule: Q01DX001 (ip), vehicle: carboxymethylcellulose (CMC)
[21] = dose: 400.0 mg/kg/injection, schedule: Q01DX001 (ip), vehicle: carboxymethylcellulose (CMC)

Measured: T/C

COc1ccc(/C=C/C(=O)c2ccccc2)cc1Br
inactive: [1] 104 % of control | [2] 97 % of control | [3] 98 % of control | [4] 98 % of control | [5] 101 % of control | [6] 95 % of control

CC1=C(N2CC2)C(=O)c2c(COC(N)=O)c3n(c2C1=O)CCC3OC(N)=O (stereo not given)
inactive: dose: 1.5 mg/kg/injection, schedule: Q01DX001 (ip), vehicle: distilled water + Tween-80 108 % of control | dose: 3.0 mg/kg/injection, schedule: Q01DX001 (ip), vehicle: distilled water + Tween-80 109 % of control and 112 % of control | dose: 6.0 mg/kg/injection, schedule: Q01DX001 (ip), vehicle: distilled water + Tween-80 114 % of control and 121 % of control | dose: 12.0 mg/kg/injection, schedule: Q01DX001 (ip), vehicle: distilled water + Tween-80 120 % of control | dose: 48.0 mg/kg/injection, schedule: Q01DX001 (ip), vehicle: distilled water + Tween-80 120 % of control

CC(=O)/C(C#N)=C(\C)N
inactive: [7] 103 % of control | [8] 103 % of control | [9] 103 % of control

Cc1ccccc1-n1c(O)c(N=Nc2ccccc2)c(=O)n(-c2ccccc2)c1=S
inactive: dose: 50.0 mg/kg/injection, schedule: Q04DX003 (ip), vehicle: Klucel (hydroxypropylcellulose) (HPC) 93 % of control | dose: 100.0 mg/kg/injection, schedule: Q04DX003 (ip), vehicle: Klucel (hydroxypropylcellulose) (HPC) 94 % of control | dose: 200.0 mg/kg/injection, schedule: Q04DX003 (ip), vehicle: Klucel (hydroxypropylcellulose) (HPC) 104 % of control

CC(C)C1C=C2CCC3C(C)(C(=O)O)CCCC3(C)C2CC1 (stereo not given)
inactive: [10] 96 % of control | [11] 94 % of control | [12] 92 % of control

C/C(=N\O)c1ccc2[nH]c(C)cc(=O)c2c1
inactive: dose: 37.5 mg/kg/injection, schedule: Q01DX009 (ip), vehicle: saline 97 % of control | dose: 75.0 mg/kg/injection, schedule: Q01DX009 (ip), vehicle: saline 97 % of control | dose: 75.0 mg/kg/injection, schedule: Q04DX003 (ip), vehicle: saline 95 % of control | dose: 150.0 mg/kg/injection, schedule: Q01DX009 (ip), vehicle: saline 92 % of control | dose: 150.0 mg/kg/injection, schedule: Q04DX003 (ip), vehicle: saline 95 % of control | dose: 300.0 mg/kg/injection, schedule: Q04DX003 (ip), vehicle: saline 93 % of control

COCC(=O)C(C(C)=O)C(c1ccc2c(c1)OCO2)C(C(C)=O)C(=O)COC (stereo not given)
inactive: [2] 96 % of control | [4] 101 % of control | [6] 96 % of control

c1ccc(-c2cc(-c3cc(-c4ccccc4)on3)no2)cc1
inactive: [13] 91 % of control | [10] 101 % of control | [1] 94 % of control | [11] 100 % of control | [3] 96 % of control

COC1=CC(c2ccccc2[N+](=O)[O-])OC1=O (stereo not given)
inactive: [1] 97 % of control | [2] 96 % of control | [3] 91 % of control | [4] 91 % of control | [5] 91 % of control | [6] 93 % of control

O=CO.[Mn]
inactive: dose: 5.0 mg/kg/injection, schedule: Q01DX001 (ip), vehicle: saline 96 % of control | [14] 101 % of control | [15] 96 % of control | [16] 96 % of control | [17] 98 % of control

COc1ccc(CCNC(=O)Cc2cc(OC)c(OC)cc2Br)cc1OC
inactive: [2] 94 % of control | [4] 100 % of control | [6] 96 % of control

O=C(COc1c(Cl)cc(Cl)cc1Cl)Nc1ccc2c(c1)C(=O)c1ccccc1C2=O
inactive: dose: 25.0 mg/kg/injection, schedule: Q04DX002 (ip), vehicle: saline with Tween-80 98 % of control | dose: 50.0 mg/kg/injection, schedule: Q04DX002 (ip), vehicle: saline with Tween-80 98 % of control | [18] 94 % of control

C1=CC23CC(c4ccccc42)C2c4ccccc4C23C=C1 (stereo not given)
inactive: [1] 101 % of control | [2] 93 % of control | [3] 101 % of control | [4] 95 % of control | [5] 95 % of control | [6] 93 % of control

CCCCCCC(Sc1n[nH]c(=O)[nH]c1=O)C(=O)OCC (stereo not given)
inactive: dose: 12.5 mg/kg/injection, schedule: Q01DX005 (ip), vehicle: distilled water + Tween-80 97 % of control | dose: 25.0 mg/kg/injection, schedule: Q01DX005 (ip), vehicle: distilled water + Tween-80 102 % of control | dose: 50.0 mg/kg/injection, schedule: Q01DX005 (ip), vehicle: distilled water + Tween-80 102 % of control | dose: 100.0 mg/kg/injection, schedule: Q01DX005 (ip), vehicle: distilled water + Tween-80 96 % of control | dose: 200.0 mg/kg/injection, schedule: Q01DX005 (ip), vehicle: distilled water + Tween-80 97 % of control

CN(CCCOS(C)(=O)=O)CCCN(C)CCCOS(C)(=O)=O
inactive: [14] 115 % of control | [15] 107 % of control | [16] 115 % of control | dose: 60.0 mg/kg/injection, schedule: Q01DX001 (ip), vehicle: saline 124 % of control | [17] 115 % of control | [19] 117 % of control

CC1(C)SC2C(NC(=O)Cc3ccccc3)C(=O)N2C1C(=O)O (stereo not given)
inactive: dose: 25.0 mg/kg/injection, schedule: Q01DX001 (ip), vehicle: saline 97 % of control | dose: 25.0 mg/kg/injection, schedule: Q04DX002 (ip), vehicle: saline 97 % of control | dose: 50.0 mg/kg/injection, schedule: Q01DX001 (ip), vehicle: saline 100 % of control | [7] 100 % of control | [19] 100 % of control and 102 % of control | [8] 97 % of control and 100 % of control | [20] 104 % of control | dose: 200.0 mg/kg/injection, schedule: Q01DX001 (ip), vehicle: saline 97 % of control and 100 % of control | [9] 102 % of control and 104 % of control | [21] 100 % of control

CCOC(=O)Cc1ccncc1CC
inactive: [10] 94 % of control | [1] 97 % of control | [11] 91 % of control | [3] 104 % of control | [12] 100 % of control | [5] 101 % of control

Nc1cc(=O)c2[nH]cnc2[nH]1
inactive: dose: 100.0 mg/kg/injection, schedule: Q01DX001 (ip), vehicle: carboxymethylcellulose (CMC) 95 % of control | [20] 104 % of control | [21] 101 % of control

CC(C)=CBr
inactive: dose: 100.0 mg/kg/injection, schedule: Q04DX003 (ip), vehicle: acetone 103 % of control | dose: 200.0 mg/kg/injection, schedule: Q04DX003 (ip), vehicle: acetone 94 % of control

COc1ccc(C(O)c2ccccc2C(=O)Nc2ccccc2)cc1 (stereo not given)
inactive: [2] 93 % of control | [4] 92 % of control | [6] 88 % of control

CN/N=C1\CCC2C3CCc4cc(O)ccc4C3CCC12C (stereo not given)
inactive: dose: 25.0 mg/kg/injection, schedule: Q01DX009 (ip), vehicle: Klucel (hydroxypropylcellulose) (HPC) 102 % of control | dose: 50.0 mg/kg/injection, schedule: Q01DX009 (ip), vehicle: Klucel (hydroxypropylcellulose) (HPC) 103 % of control

O=C(O)C1CCC=CC1c1ccccc1 (stereo not given)
inactive: [18] 95 % of control | dose: 200.0 mg/kg/injection, schedule: Q04DX002 (ip), vehicle: saline with Tween-80 102 % of control | dose: 400.0 mg/kg/injection, schedule: Q04DX002 (ip), vehicle: saline with Tween-80 91 % of control

CCC(C)C(C(=O)OCCN(C)C)c1ccccc1 (stereo not given)
inactive: [13] 100 % of control | [1] 97 % of control | [3] 103 % of control
